Results from patent publication EP3248604A1, “AGENTS FOR MODULATION OF WNT-TCF SIGNALLING AND USES THEREOF” (UNIVERSITE DE GENEVE, priority 2016, dated 2017).

How the values were obtained:
[1] = test system: WNT-TCF targets; test: RT-qPCR gene expression in mCC11 primary colon cancer cells; format: cell-based, human
Experimental: (§1) RT-qPCR was performed as in Melotti et al. (2014, supra) using BioRad equipment and reagents. Cells cultured in nitro were treated with the desired concentration of drug in DMEM-F12 and reduced serum (2.5% FBS) for 16h, unless otherwise noted, and collected in Trizol (Sigma) before total RNA extraction and cDNA synthesis. Primers were as in Table 1. HPRT (gene encoding Hypoxanthine phosphoribosyltransferase 1) and βACTIN were used as housekeeping controls for normalization.
(§2) Primary colon cells CC14, CC36 and mCC11, colon cancer cell lines DLD1, HT29, Ls174T, melanoma cell line MeWo, glioblastoma cell lines U87 and U251, and the lung cancer cell line H358 were cultured in DMEM-F12 with 10% FBS under standard in nitro conditions.

[2] = test system: Epigenetic regulators; test: RT-qPCR of epigenetic regulators in HT29 cells; format: cell-based, human; conditions: 0.5 µM
Experimental: as §1
The WNT-TCF-independent repressive activity of CAP2 on epigenetic regulators may be extrapolated to other cancer cells as it was also detected in HT29 and CC14 human colon cancer cells, in MeWo human melanoma cells as well as in U87 and U251 human glioma cells. In all these different human cancer cells, CAP2 (at 0.5 µM) modulated the expression of ZMYND8, SMARCAL1, TBLIXR1, SETD6 and TAF5Ls (Table 15).

[3] = test system: WNT-TCF targets; test: RT-qPCR gene expression in CC14 primary colon cancer cells; format: cell-based, human; set-up: cMYC expression: scale not given here
Experimental: as §1
Primary colon cells CC14 were cultured in DMEM-F12 with 10% FBS under standard in vitro conditions.
as §2

[4] = test system: WNT-TCF targets; test: Epistatic rescue with TCF^VP16, DLD1; format: cell-based, human; conditions: CAP2 5µM, 16h
Experimental: Lentivectors expressing a TCF4^VP16 protein in a vector independently expressing GFP, or vector alone, plus reporter plasmids were transfected into cells. 72h after transfection cells were visually checked for expression of GFP. Independent batches of cells with >80% GFP expression were chosen for further experimentation and treated with or without compounds in DMEM-F12 (with 2.5% FBS) for 16h and collected in Trizol.
If the effects of CAP2 on WNT-TCF targets were specific, an activated form of TCF should rescue the repression since CAP2 is likely to act downstream of the APC destruction complex since it was found using an N'Δ form of βCATENIN that is APC insensitive. To activate this last step of canonical WNT signaling, a fusion between TCF and the potent transactivation domain of the viral VP16 protein, TCF^VP16 (Melotti et al., 2014, supra), was used to directly and positively regulate TCF targets. […] Rescue of LGR5, cMYC and ASCL2 repression by CAP2 (at 5µM) was also observed although there was variability between the cell types, similarly to the repression of CDKN1A (Table 8), although in all cases it reversed its enhancement by CAP2 treatment (Table 8).

[5] = test system: cell proliferation; test: BrdU incorporation assay; format: cell-based; conditions: Example 3 (Ls174T, DLD1 cells)
Experimental: Cells incubated in vitro with different compounds were treated in DMEM-F12 with reduced serum (2.5% FBS) for 20 min with BrdU (5-bromo-2'-deoxyuridine; 10mg/ml, Sigma), washed and fixed with fresh paraformaldehyde (PFA; 4%, pH 8) followed by acid treatment and neutralization (Melotti et al., 2014, supra). Antibody analyses used anti-BrdU antibodies (supplied by University of Iowa Hybridoma Bank) and rhodamine-coupled anti-mouse secondary antibodies (Invitrogen Molecular Probes). Nuclei were counterstained with DAPI (4',6-diamidino-2-phenylindole; Sigma).

[6] = 1.25µM, 16h, batch 3, vs DMSO=1
[7] = CC14, 1.25µM, 16h, batch 3, vs DMSO=1
[8] = CC14, 2.5µM, 16h, batch 3, vs DMSO=1
[9] = CC14, 5µM, 16h, batch 3, vs DMSO=1
[10] = CC14, 10µM, 16h, batch 3, vs DMSO=1

Compound CC1=C(C)C(=O)O[C@@H]([C@](C)(O)[C@]2(O)CC[C@@]3(O)[C@@H]4CC=C5CC=CC(=O)[C@]5(C)[C@H]4CC[C@]23C)C1 [CAP2] has an AXIN2 expression [1, 6] of 0.6, an LGR5 expression [1, 6] of 0.8 and an AXIN2 expression ([1]; 2.5µM, 16h, batch 3, vs DMSO=1) of 0.5. The LGR5 expression ([1]; 2.5µM, 16h, batch 3, vs DMSO=1) was 0.3, the AXIN2 expression ([1]; 5µM, 16h, batch 3, vs DMSO=1) was 0.3 and the LGR5 expression ([1]; 5µM, 16h, batch 3, vs DMSO=1) was 0.1. For the same compound, the AXIN2 expression ([1]; 10µM, 16h, batch 3, vs DMSO=1) was 0.3, the LGR5 expression ([1]; 10µM, 16h, batch 3, vs DMSO=1) was 0.04 and the ASCL2 expression ([1]; Table 7, 1.25µM, vs DMSO=1) was 0.3. It also gave an AXIN2 expression ([1]; Table 7, 1.25µM, vs DMSO=1) of 0.6, a CDKN1A expression ([1]; Table 7, 1.25µM, vs DMSO=1) of 1.4 and an LEF1 expression ([1]; Table 7, 1.25µM, vs DMSO=1) of 0.3. It also gave an LGR5 expression ([1]; Table 7, 1.25µM, vs DMSO=1) of 0.8, a cMYC expression ([1]; Table 7, 1.25µM, vs DMSO=1) of 0.5 and an ASCL2 expression ([1]; Table 7, 2.5µM, vs DMSO=1) of 0.2. The AXIN2 expression ([1]; Table 7, 2.5µM, vs DMSO=1) was 0.5, the CDKN1A expression ([1]; Table 7, 2.5µM, vs DMSO=1) was 2.7 and the LEF1 expression ([1]; Table 7, 2.5µM, vs DMSO=1) was 0.4. For the same compound, the LGR5 expression ([1]; Table 7, 2.5µM, vs DMSO=1) was 0.3, the cMYC expression ([1]; Table 7, 2.5µM, vs DMSO=1) was 0.3 and the ASCL2 expression ([1]; Table 7, 5µM, vs DMSO=1) was 0.1. For the same compound, the AXIN2 expression ([1]; Table 7, 5µM, vs DMSO=1) was 0.3, the CDKN1A expression ([1]; Table 7, 5µM, vs DMSO=1) was 6.5 and the LEF1 expression ([1]; Table 7, 5µM, vs DMSO=1) was 0.5. It also gave an LGR5 expression ([1]; Table 7, 5µM, vs DMSO=1) of 0.1, a cMYC expression ([1]; Table 7, 5µM, vs DMSO=1) of 0.1 and an ASCL2 expression ([1]; Table 7, 10µM, vs DMSO=1) of 0.02. For the same compound, the AXIN2 expression ([1]; Table 7, 10µM, vs DMSO=1) was 0.3, the CDKN1A expression ([1]; Table 7, 10µM, vs DMSO=1) was 5.3 and the LEF1 expression ([1]; Table 7, 10µM, vs DMSO=1) was 0.6. It also gave an LGR5 expression ([1]; Table 7, 10µM, vs DMSO=1) of 0.04, a cMYC expression ([1]; Table 7, 10µM, vs DMSO=1) of 0.1 and an EED expression [2] of 0.3. The SETD6 expression [2] was 0.2, the SMARCAL1 expression [2] was 0.2 and the TAF5L expression [2] was 0.4. For the same compound, the TBL1XR1 expression [2] was 0.02, the ZMYND8 expression [2] was 0.1 and the AXIN2 expression ([3]; 100 nM, Example 2 cells (CC14)) was 0.7. It also gave an LGR5 expression ([3]; 100 nM, Example 2 cells (CC14)) of 0.3, a cMYC expression ([3]; 100 nM, Example 2 cells (CC14)) of 0.2 and an AXIN2 expression [3, 7] of 0.9. For the same compound, the LGR5 expression [3, 7] was 1.0, the AXIN2 expression [3, 8] was 1.5 and the LGR5 expression [3, 8] was 0.8. It also gave an AXIN2 expression [3, 9] of 0.7, an LGR5 expression [3, 9] of 0.1 and an AXIN2 expression [3, 10] of 0.7. The LGR5 expression [3, 10] was 0.03, the “ASCL2 expression, TCF^VP16+ CAP2 / control + CAP2” value [4] was 1.5 and the “AXIN2 expression, TCF^VP16+ CAP2 / control + CAP2” value [4] was 3.4. The “CDKN1A expression, TCF^VP16+ CAP2 / control + CAP2” value [4] was 0.4, the “LGR5 expression, TCF^VP16+ CAP2 / control + CAP2” value [4] was 1.4 and the “cMYC expression, TCF^VP16+ CAP2 / control + CAP2” value [4] was 0.8. For the same compound, the “concentration which changes cell proliferation assessed by BrdU incorporation” value [5] was 1.25 µM.
